The results in this text go back to US9163012B2, “Carbamate and urea inhibitors of 11β-hydroxysteroid dehydrogenase 1” (Vitae Pharmaceuticals, Inc., priority 2009, dated 2015).

pIC50: −log10 of the molar value. Read-outs that look alike come from different tables or passages of the source.

The term pIC50 denotes −log10 of the IC50, conventionally taken in molar units. Broadly, the inhibition is the percentage by which the read-out fell short of the control.

This experiment concerns the target 11β-HSD1 (Homo sapiens (Human), UniProt P28845). Briefly: Biological Test Example 1: inhibition of a microsomal preparation of 11β-HSD1 (SPA). Format: biochemical. To be noted: for inhibition at 0.1 µM: read-out: Average % inhibition at 100 nM, Biological Test Example 1; for inhibition at 0.111 µM: read-out: Average % inhibition at 111 nM. The procedure: All reactions were carried out at rt in 96 well clear flexible PET Microbeta plates (PerkinElmer). […] After a 10 minute pre-incubation, 50 μL of enzyme solution containing microsomes isolated from CHO cells overexpressing human 11-HSD1 (10-20 μg/ml of total protein) was added, and the plates were incubated for 90 minutes at rt. The reaction was stopped by adding 50 μl of the SPA beads suspension containing 10 μM […], 5 mg/ml protein A coated YSi SPA beads (GE Healthcare) and 3.3 μg/ml of anti-cortisol antibody (East Coast Biologics) in Superblock buffer (Bio-Rad). The plates were shaken for 120 minutes at rt, and the SPA signal corresponding to [^3H]cortisol was measured on a Microbeta plate reader.

[1] abbreviates: Biological Test Example 1, microsomes from CHO cells overexpressing human 11β-HSD1, read-out: IC50 Range.
[2] abbreviates: Biological Test Example 1, read-out: IC50.
The mark [3] stands for this setting: Biological Test Example 1, 100 nM compound.

Sequence of 11β-HSD1 (P28845 whole entry): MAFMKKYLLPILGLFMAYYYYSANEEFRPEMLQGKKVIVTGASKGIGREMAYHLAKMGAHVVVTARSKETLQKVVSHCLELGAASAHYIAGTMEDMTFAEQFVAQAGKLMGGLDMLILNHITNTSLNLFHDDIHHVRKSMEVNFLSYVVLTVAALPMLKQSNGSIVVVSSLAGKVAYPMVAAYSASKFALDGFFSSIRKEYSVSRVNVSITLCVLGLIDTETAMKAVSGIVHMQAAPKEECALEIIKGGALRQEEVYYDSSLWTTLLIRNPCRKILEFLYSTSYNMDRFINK

Take `O=C(OC1C2CC3CC1CC(O)(C3)C2)N1CCC(c2cc[n+]([O-])cc2)C1` (centres unmarked) [EXAMPLE 22, 4-(1-((1-hydroxy-4-adamantyloxy)carbonyl)pyrrolidin-3-yl)pyridine 1-oxide]: the pIC50 under setting [1] is under 7.00 and the pIC50 under setting [2] is 7.00. Further, the inhibition at 0.1 µM (100 nM compound) is 3.7%.
On to `Cc1cnc(C2CCN(C(=O)OC3C4CC5CC3CC(C(N)=O)(C5)C4)C2)nc1` (single isomer, unassigned) [EXAMPLE 39 Isomer 2, 1-carbamoyl-4-adamantyl 3-(5-methylpyrimidin-2-yl)pyrrolidine-1-carboxylate], for which the “Average % inhibition at 100 nM” value under setting [3] stood at 1.8%. Moreover, the pIC50 reads like this: under setting [1], under 7.00; under setting [2], under 7.00.
Take `NC(=O)[C@]12CC3CC(C1)[C@@H](OC(=O)N1CCC(c4ncc(Cl)cn4)C1)C(C3)C2` (single isomer, unassigned) [EXAMPLE 26 Isomer 1b, (1-carbamoyl-4-adamantyl) 3-(5-chloropyrimidin-2-yl)pyrrolidine-1-carboxylate]: under setting [3], the “Average % inhibition at 100 nM” value was 84.2%. Also, the pIC50 by setting is: under setting [1], over 7.00; under setting [2], 8.72.
Consider `Cc1nc2cc(F)ccc2n1C1CCN(C(=O)OC2C3CC4CC2CC(C(N)=O)(C4)C3)C1` (single isomer, unassigned; isomer 1) [EXAMPLE 74 Isomer 1], for which the “Average % inhibition at 100 nM” value was 91.9%. The pIC50 (read-out: IC50) was 8.65. Moreover, for the setting “read-out: IC50 Range”, the negative-log IC50 (pIC50) was over 7.00.
`Cc1cc(C2CCN(C(=O)OC3C4CC5CC3CC(C(N)=O)(C5)C4)C2)nn1C` (single isomer, unassigned) [EXAMPLE 40 Isomer 2, 1-carbamoyl-4-adamantyl 3-(1,5-dimethyl-1H-pyrazol-3-yl)pyrrolidine-1-carboxylate]: under setting [3], the “Average % inhibition at 100 nM” value is recorded as 5.2%. Besides, the pIC50 reads like this: under setting [1], under 7.00; under setting [2], under 7.00.
For the compound `Cn1ccc(-c2cnc(C3CCN(C(=O)OC4C5CC6CC4CC(C(N)=O)(C6)C5)C3)nc2)cc1=O` (single isomer, unassigned; isomer 1) [EXAMPLE 57 Isomer 1, trans-1-carbamoyl-4-adamantyl 3-(5-(1-methyl-2-oxo-1,2-dihydropyridin-4-yl)pyrimidin-2-yl)pyrrolidine-1-carboxylate], the “Average % inhibition at 100 nM” value is recorded as 65.0%. In addition, under “read-out: IC50”, the pIC50 is 7.30. Moreover, for the setting “read-out: IC50 Range”, the pIC50 was over 7.00.
In the case of `NC(=O)[C@]12CC3CC(C1)[C@@H](OC(=O)N1CCC[C@@H]1c1nc(-c4cc[nH]c(=O)c4)cs1)C(C3)C2` [EXAMPLE 54, (R)-trans-1-carbamoyl-4-adamantyl 2-(4-(2-oxo-1,2-dihydropyridin-4-yl)thiazol-2-yl)pyrrolidine-1-carboxylate], the pIC50 is over 7.00 under setting [1] and 8.57 under setting [2]. Besides, the inhibition at 0.1 µM (100 nM compound) was determined as 95.4%.
In the same order, the values of `Cn1ccc(-c2csc([C@H]3CCCN3C(=O)OC3C4CC5CC(C4)CC3C5)n2)cc1=O` (stereo partly drawn) [EXAMPLE 53, (R)-2-adamantyl 2-(4-(1-methyl-2-oxo-1,2-dihydropyridin-4-yl)thiazol-2-yl)pyrrolidine-1-carboxylate] are over 7.00, 9.33 and 95.8%.
With `CCOC(=O)C1(Cc2ccccc2OC)CCCN(C(=O)OC2C3CC4CC(C3)CC2C4)C1` (centres unmarked) [EXAMPLE 14, 1-(2-adamantyl) 3-ethoxycarbonyl-3-(2-methoxybenzyl)piperidine-1-carboxylate], the inhibition at 0.111 µM was found to be 87.6%. For the same compound, the pIC50 under setting [1] was over 7.00. The pIC50 (read-out: IC50) was 8.15.
Regarding `Cc1cc(C)nc(C2CCN(C(=O)OC3C4CC5CC3CC(C(N)=O)(C5)C4)C2)n1` (single isomer, unassigned) [EXAMPLE 43 Isomer 2, cis-1-carbamoyl-4-adamantyl 3-(4,6-dimethylpyrimidin-2-yl)pyrrolidine-1-carboxylate], under setting [3], the “Average % inhibition at 100 nM” value is reported as −1.8%. For the same compound, the pIC50 was under 7.00 under setting [1] and under 7.00 under setting [2].
With `COC(=O)C1(c2ccccc2)CCN(C(=O)OC2C3CC4CC(C3)CC2C4)CC1` (centres unmarked) [EXAMPLE 11, 1-(2-adamantyl) 4-methyl 4-phenylpiperidine-1,4-dicarboxylate], the inhibition at 0.111 µM was found to be 86.3%. This compound gave a pIC50 (IC50 Range) of over 7.00. Moreover, the pIC50 (read-out: IC50) is 8.18.
`Cc1nc2cc(C#N)ccc2n1[C@H]1CCN(C(=O)OC2C3CC4CC2CC(C(N)=O)(C4)C3)C1` (stereo partly drawn) [EXAMPLE 75, (S)-1-carbamoyl-4-adamantyl 3-(5-cyano-2-methyl-1H-benzo[d]imidazol-1-yl)pyrrolidine-1-carboxylate]: the pIC50 under setting [1] is over 7.00 and the pIC50 under setting [2] is 8.30. In addition, where the note is “100 nM compound”, the inhibition at 0.1 µM came to 39.1%.
`O=C(OC1C2CC3CC1CC(O)(C3)C2)N1CCC(c2ncc(Cl)cn2)C1` (single isomer, unassigned) [EXAMPLE 24 Isomer 1, trans-1-hydroxy-4-adamantyl 3-(5-chloropyrimidin-2-yl)pyrrolidine-1-carboxylate]: the “Average % inhibition at 100 nM” value under setting [3] is 98.6%.
Turning to `Cc1ccnc(C2CCN(C(=O)OC3C4CC5CC3CC(C(N)=O)(C5)C4)C2)n1` (single isomer, unassigned) [EXAMPLE 38 Isomer 1, 1-carbamoyl-4-adamantyl 3-(4-methylpyrimidin-2-yl)pyrrolidine-1-carboxylate], the “Average % inhibition at 100 nM” value under setting [3] was found to be 93.1%. For the same compound, the pIC50 reads like this: under setting [1], over 7.00; under setting [2], 8.48.
Turning to `Cc1csc(C2CCN(C(=O)OC3C4CC5CC3CC(C(N)=O)(C5)C4)C2)n1` (single isomer, unassigned) [EXAMPLE 42 Isomer 1, transl-carbamoyl-4-adamantyl 3-(4-methylthiazol-2-yl)pyrrolidine-1-carboxylate], the “Average % inhibition at 100 nM” value under setting [3] came to 91.8%.
On to `NC(=O)[C@]12CC3CC(C1)[C@@H](OC(=O)N1CC[C@H](n4c(=O)[nH]c5ccccc54)C1)C(C3)C2` [EXAMPLE 60, (S)-trans-1-carbamoyl-4-adamantyl 3-(2-oxo-2,3-dihydro-1H-benzo[d]imidazol-1-yl)pyrrolidine-1-carboxylate], for which the pIC50 reads like this: under setting [1], over 7.00; under setting [2], 9.12. Moreover, the inhibition at 0.1 µM (100 nM compound) was found to be 93.9%.
Consider `NC(=O)[C@]12CC3CC(C1)[C@@H](OC(=O)N1CCC(c4ncc(Cl)cn4)C1)C(C3)C2` (single isomer, unassigned) [EXAMPLE 26 Isomer 2, cis-(1-carbamoyl-4-adamantyl) 3-(5-chloropyrimidin-2-yl)pyrrolidine-1-carboxylate], for which the “Average % inhibition at 100 nM” value under setting [3] is 26.3%. For the same compound, the pIC50 is, setting by setting: under setting [1], under 7.00; under setting [2], under 7.00.
In the case of `Cn1ccc(-c2csc([C@H]3CCCN3C(=O)O[C@H]3C4CC5CC3C[C@](C(N)=O)(C5)C4)n2)cc1=O` [EXAMPLE 55, (R)-trans-1-carbamoyl-4-adamantyl 2-(4-(1-methyl-2-oxo-1,2-dihydropyridin-4-yl)thiazol-2-yl)pyrrolidine-1-carboxylate], the pIC50 runs as follows: under setting [1], over 7.00; under setting [2], 8.68. In addition, where the note is “100 nM compound”, the inhibition at 0.1 µM came to 93.1%.
In the same order, the values of `Cn1c(C2CCCN2C(=O)OC2C3CC4CC2CC(C(N)=O)(C4)C3)nc2ccccc21` (centres unmarked) [EXAMPLE 32, (1-carbamoyl-4-adamantyl) 2-(1-methyl-1H-benzo[d]imidazol-2-yl)pyrrolidine-1-carboxylate] are over 7.00, 8.97 and 94.7%.
As for `NC(=O)C12CC3CC(C1)C(OC(=O)N1CCC(c4nccc(C(F)(F)F)n4)C1)C(C3)C2` (single isomer, unassigned) [EXAMPLE 48 Isomer 2, cis-1-carbamoyl-4-adamantyl 3-(4-(trifluoromethyl)pyrimidin-2-yl)pyrrolidine-1-carboxylate], the “Average % inhibition at 100 nM” value under setting [3] was determined as 16.1%.
On to `Cc1ccc(C2CCN(C(=O)OC3C4CC5CC3CC(C(N)=O)(C5)C4)C2)nc1` (single isomer, unassigned) [EXAMPLE 35 Isomer 2, cis-1-carbamoyl-4-adamantyl 3-(5-methylpyridin-2-yl)pyrrolidine-1-carboxylate], for which the “Average % inhibition at 100 nM” value under setting [3] is given as 8.1%. Besides, the pIC50 by setting is: under setting [1], under 7.00; under setting [2], under 7.00.
Regarding `NC(=O)[C@]12CC3CC(C1)[C@@H](OC(=O)N1CC[C@H](Oc4ccc(C(F)(F)F)cn4)C1)C(C3)C2` [EXAMPLE 6, (S)-(trans-(1-carbamoyl-4-adamantyl)) 3-(5-(trifluoromethyl)pyridin-2-yloxy)pyrrolidine-1-carboxylate], the pIC50 is, setting by setting: under setting [1], over 7.00; under setting [2], 9.27. Also, the inhibition at 0.1 µM (100 nM compound) was 96.9%.
Regarding `Cc1ccc(C2CCN(C(=O)OC3C4CC5CC3CC(C(N)=O)(C5)C4)C2)nn1` (single isomer, unassigned) [EXAMPLE 37 Isomer 2], under setting [3], the “Average % inhibition at 100 nM” value is on record as 13.3%.
As for `NC(=O)c1cnc(C2CCN(C(=O)OC3C4CC5CC3CC(C(N)=O)(C5)C4)C2)nc1` (single isomer, unassigned) [EXAMPLE 47 Isomer 1, 1-carbamoyl-4-adamantyl 3-(5-carbamoylpyrimidin-2-yl)pyrrolidine-1-carboxylate], the “Average % inhibition at 100 nM” value under setting [3] was 6.1%. Also, the pIC50 under setting [1] is under 7.00 and the pIC50 under setting [2] is under 7.00.
With `NC(=O)C12CC3CC(C1)C(OC(=O)N1CCC(c4ncc(F)cn4)C1)C(C3)C2` (single isomer, unassigned) [EXAMPLE 41 Isomer 2, 1-carbamoyl-4-adamantyl 3-(5-fluoropyrimidin-2-yl)pyrrolidine-1-carboxylate], the “Average % inhibition at 100 nM” value under setting [3] was 69.0%.
